According to patent US8247211B2, “Glycopeptide antibiotics” (American Cyanamid Company, priority 2001, dated 2012):
Converted amounts (≈) assume the structure as drawn.

What was measured:
Experiment in all cases: In vitro antibacterial evaluation: minimum inhibitory concentration (MIC), broth dilution method
Format in all cases: cell-based
Escherichia coli = settings: 18 hours at 35° C.
Procedure, shortened: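 Susceptibility determined by NCCLS-recommended broth dilution (M7-A2), Muller-Hinton II […]. Concentration span 64-0.06 μg/mL, inoculum 5×10^5 CFU/mL. Isolates include strains resistant to methicillin, penicillin and/or vancomycin.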

Staphylococcus sp. = test system: Staphylococcus sp.
Procedure, shortened: (§1)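 MIC read as lowest drug level preventing visible growth. Organisms at 5×10^5 CFU/mL were exposed to a 64-0.06 μg/mL dilution series in Muller-Hinton II […] following NCCLS broth dilution standard M7-A2.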

Enterococcus sp. = settings: 18 hours at 35° C.
Procedure, shortened: as §1

Streptococcus sp. = settings: 18 hours at 35° C.
Procedure, shortened: as §1

[1] = Enterococcus faecalis (ATCC 29212)
[2] = Enterococcus faecalis (GC 2242)
[3] = Enterococcus faecalis (GC 2691)
[4] = Enterococcus faecalis (GC 3059)
[5] = Enterococcus faecalis (GC 4552)
[6] = Enterococcus faecalis (GC 4553)
[7] = Enterococcus faecalis (GC 4554)
[8] = Enterococcus faecalis (GC 6189)
[9] = broth dilution, inoculum 5×10^5 CFU/mL
[10] = Streptococcus agalactiae (GC 4564)
[11] = Streptococcus pneumoniae (ATCC 6301)
[12] = Streptococcus pneumoniae (GC 1894)
[13] = Streptococcus pneumoniae (GC 4565)
[14] = Streptococcus pyogenes (GC 4563)

## CC(c1ccccc1)C1NC(=O)CNC(=O)C(CO)NC(=O)C(C(O)C2CNC(=N)N2C2OC(CO)C(O)C(O)C2O)NC(=O)C(C(O)C2CNC(=N)N2)NC(=O)C(Cc2ccc(OC3OC(CO)C(OC4OC(COCc5cccs5)C(O)C(O)C4O)C(O)C3O)cc2)NC1=O (stereo not drawn) [Example 244, Cyclo[glycyl-β-methylphenylalanyl-O-[4-O-[6-O-(2-thienylmethyl)hexopyranosyl]hexopyranosyl]tyrosyl-3-(2-iminoimidazolidin-4-yl)seryl-3-(3-hexopyranosyl-2-iminoimidazolidin-4-yl)serylseryl]]
Escherichia coli
  MIC Escherichia coli (ATCC 25922): >64 µg/mL
  MIC Escherichia coli (GC 4559): 64 µg/mL (≈ 46 µM)
  MIC Escherichia coli (GC 4560): 2 µg/mL (≈ 1.44 µM)
Staphylococcus sp.; Coagulase Negative Staphylococcus (GC 4547), 18 hours at 35° C.
  MIC Coagulase Negative Staphylococcus (GC 4547): 4 µg/mL (≈ 2.87 µM)
Staphylococcus sp.; Coagulase Negative Staphylococcus (GC 4548), 18 hours at 35° C.
  MIC Coagulase Negative Staphylococcus (GC 4548): 2 µg/mL (≈ 1.44 µM)
Staphylococcus sp.; Coagulase Negative Staphylococcus (GC 4549), 18 hours at 35° C.
  MIC Coagulase Negative Staphylococcus (GC 4549): 2 µg/mL (≈ 1.44 µM)
Staphylococcus sp.; Coagulase Negative Staphylococcus (GC 4551), 18 hours at 35° C.
  MIC Coagulase Negative Staphylococcus (GC 4551): 4 µg/mL (≈ 2.87 µM)
Staphylococcus sp.; Coagulase Negative Staphylococcus (GC 6257), 18 hours at 35° C.
  MIC Coagulase Negative Staphylococcus (GC 6257): 2 µg/mL (≈ 1.44 µM)
Staphylococcus sp.; Staphylococcus aureus (ATCC 29213), 18 hours at 35° C.
  MIC Staphylococcus aureus (ATCC 29213): 8 µg/mL (≈ 5.75 µM)
Staphylococcus sp.; Staphylococcus aureus (GC 1131), 18 hours at 35° C.
  MIC Staphylococcus aureus (GC 1131): 8 µg/mL (≈ 5.75 µM)
Staphylococcus sp.; Staphylococcus aureus (GC 3051), 18 hours at 35° C.
  MIC Staphylococcus aureus (GC 3051): 8 µg/mL (≈ 5.75 µM)
Staphylococcus sp.; Staphylococcus aureus (GC 3053), 18 hours at 35° C.
  MIC Staphylococcus aureus (GC 3053): 16 µg/mL (≈ 11.5 µM)
Staphylococcus sp.; Staphylococcus aureus (GC 4541), 18 hours at 35° C.
  MIC Staphylococcus aureus (GC 4541): 8 µg/mL (≈ 5.75 µM)
Staphylococcus sp.; Staphylococcus aureus (GC 4542), 18 hours at 35° C.
  MIC Staphylococcus aureus (GC 4542): 1 µg/mL (≈ 0.719 µM)
Staphylococcus sp.; Staphylococcus aureus (GC 4544), 18 hours at 35° C.
  MIC Staphylococcus aureus (GC 4544): 8 µg/mL (≈ 5.75 µM)
Staphylococcus sp.; Staphylococcus aureus (GC 4545), 18 hours at 35° C.
  MIC Staphylococcus aureus (GC 4545): 8 µg/mL (≈ 5.75 µM)
Staphylococcus sp.; Staphylococcus aureus-SMITH (GC 4543), 18 hours at 35° C.
  MIC Staphylococcus aureus-SMITH (GC 4543): 4 µg/mL (≈ 2.87 µM)
Staphylococcus sp.; Staphylococcus haemolyticus (GC 4546), 18 hours at 35° C.
  MIC Staphylococcus haemolyticus (GC 4546): 4 µg/mL (≈ 2.87 µM)
Enterococcus sp.; Enterococcus avium (GC 4558)
  MIC Enterococcus avium (GC 4558): 32 µg/mL (≈ 23 µM)
Enterococcus sp.; [1]
  MIC Enterococcus faecalis (ATCC 29212): 32 µg/mL (≈ 23 µM)
Enterococcus sp.; [2]
  MIC Enterococcus faecalis (GC 2242): 32 µg/mL (≈ 23 µM)
Enterococcus sp.; [3]
  MIC Enterococcus faecalis (GC 2691): 32 µg/mL (≈ 23 µM)
Enterococcus sp.; [4]
  MIC Enterococcus faecalis (GC 3059): 64 µg/mL (≈ 46 µM)
Enterococcus sp.; [5]
  MIC Enterococcus faecalis (GC 4552): 32 µg/mL (≈ 23 µM)
Enterococcus sp.; [6]
  MIC Enterococcus faecalis (GC 4553): 32 µg/mL (≈ 23 µM)
Enterococcus sp.; [7]
  MIC Enterococcus faecalis (GC 4554): 64 µg/mL (≈ 46 µM)
Enterococcus sp.; [8]
  MIC Enterococcus faecalis (GC 6189): 32 µg/mL (≈ 23 µM)
Enterococcus sp.; Enterococcus faecium (GC 2243)
  MIC Enterococcus faecium (GC 2243): 32 µg/mL (≈ 23 µM)
Enterococcus sp.; Enterococcus faecium (GC 4556)
  MIC Enterococcus faecium (GC 4556): 32 µg/mL (≈ 23 µM)
Enterococcus sp.; Enterococcus faecium (GC 4557)
  MIC Enterococcus faecium (GC 4557): 4 µg/mL (≈ 2.87 µM)
Enterococcus sp.; [9]
  MIC Enterococcus faecalis (GC 2242): 32 µg/mL (≈ 23 µM)
  MIC Enterococcus faecalis (GC 2691): 32 µg/mL (≈ 23 µM)
  MIC Enterococcus faecalis (GC 3059): 64 µg/mL (≈ 46 µM)
Streptococcus sp.; [10]
  MIC Streptococcus agalactiae (GC 4564): 4 µg/mL (≈ 2.87 µM)
Streptococcus sp.; [11]
  MIC Streptococcus pneumoniae (ATCC 6301): 1 µg/mL (≈ 0.719 µM)
Streptococcus sp.; [12]
  MIC Streptococcus pneumoniae (GC 1894): 0.5 µg/mL (≈ 0.359 µM)
Streptococcus sp.; [13]
  MIC Streptococcus pneumoniae (GC 4565): 1 µg/mL (≈ 0.719 µM)
Streptococcus sp.; [14]
  MIC Streptococcus pyogenes (GC 4563): 2 µg/mL (≈ 1.44 µM)
Streptococcus sp.; [9]
  MIC Streptococcus agalactiae (GC 4564): 4 µg/mL (≈ 2.87 µM)
  MIC Streptococcus pneumoniae (ATCC 6301): 1 µg/mL (≈ 0.719 µM)
  MIC Streptococcus pneumoniae (GC 1894): 0.5 µg/mL (≈ 0.359 µM)
  MIC Streptococcus pneumoniae (GC 4565): 1 µg/mL (≈ 0.719 µM)
  MIC Streptococcus pyogenes (GC 4563): 2 µg/mL (≈ 1.44 µM)

## CC(c1ccccc1)C1NC(=O)CNC(=O)C(CO)NC(=O)C(C(O)C2CNC(=N)N2C2OC(CO)C(O)C(O)C2O)NC(=O)C(C(O)C2CNC(=N)N2)NC(=O)C(Cc2ccc(OC3OC(CO)C(OC4OC5COC6(CC7CCC6(C)C7(C)C)OC5C(O)C4O)C(O)C3O)cc2)NC1=O (stereo not drawn) [Example 214, Cyclo[glycyl-β-methylphenylalanyl-O-[4-O-[4,6-O-(1,7,7-trimethylbicyclo[2.2.1]hept-2-ylidene)hexopyranosyl]hexopyranosyl]tyrosyl-3-(2-iminoimidazolidin-4-yl)seryl-3-(3-hexopyranosyl-2-iminoimidazolidin-4-yl)serylseryl]]
Escherichia coli
  MIC Escherichia coli (ATCC 25922): 64 µg/mL (≈ 44.8 µM)
  MIC Escherichia coli (GC 4559): 64 µg/mL (≈ 44.8 µM)
  MIC Escherichia coli (GC 4560): 2 µg/mL (≈ 1.4 µM)
Staphylococcus sp.; strain ATCC 29213
  MIC Staphylococcus aureus (ATCC 29213): 2 µg/mL (≈ 1.4 µM)
Staphylococcus sp.; strain GC 1131
  MIC Staphylococcus aureus (GC 1131): 1 µg/mL (≈ 0.7 µM)
Staphylococcus sp.; strain GC 3051
  MIC Staphylococcus aureus (GC 3051): 32 µg/mL (≈ 22.4 µM)
Staphylococcus sp.; strain GC 3053
  MIC Staphylococcus aureus (GC 3053): 2 µg/mL (≈ 1.4 µM)
Staphylococcus sp.; strain GC 4541
  MIC Staphylococcus aureus (GC 4541): 2 µg/mL (≈ 1.4 µM)
Staphylococcus sp.; strain GC 4542
  MIC Staphylococcus aureus (GC 4542): 1 µg/mL (≈ 0.7 µM)
Staphylococcus sp.; strain GC 4543
  MIC Staphylococcus aureus-SMITH (GC 4543): 0.5 µg/mL (≈ 0.35 µM)
Staphylococcus sp.; strain GC 4544
  MIC Staphylococcus aureus (GC 4544): 1 µg/mL (≈ 0.7 µM)
Staphylococcus sp.; strain GC 4545
  MIC Staphylococcus aureus (GC 4545): 2 µg/mL (≈ 1.4 µM)
Staphylococcus sp.; strain GC 4546
  MIC Staphylococcus haemolyticus (GC 4546): 1 µg/mL (≈ 0.7 µM)
Staphylococcus sp.; strain GC 4547
  MIC Coagulase Negative Staphylococcus (GC 4547): 1 µg/mL (≈ 0.7 µM)
Staphylococcus sp.; strain GC 4548
  MIC Coagulase Negative Staphylococcus (GC 4548): 1 µg/mL (≈ 0.7 µM)
Staphylococcus sp.; strain GC 4549
  MIC Coagulase Negative Staphylococcus (GC 4549): 0.5 µg/mL (≈ 0.35 µM)
Staphylococcus sp.; strain GC 4551
  MIC Coagulase Negative Staphylococcus (GC 4551): 1 µg/mL (≈ 0.7 µM)
Enterococcus sp.; Enterococcus avium (GC 4558)
  MIC Enterococcus avium (GC 4558): 2 µg/mL (≈ 1.4 µM)
Enterococcus sp.; [1]
  MIC Enterococcus faecalis (ATCC 29212): 2 µg/mL (≈ 1.4 µM)
Enterococcus sp.; [2]
  MIC Enterococcus faecalis (GC 2242): 2 µg/mL (≈ 1.4 µM)
Enterococcus sp.; [3]
  MIC Enterococcus faecalis (GC 2691): 2 µg/mL (≈ 1.4 µM)
Enterococcus sp.; [4]
  MIC Enterococcus faecalis (GC 3059): 2 µg/mL (≈ 1.4 µM)
Enterococcus sp.; [5]
  MIC Enterococcus faecalis (GC 4552): 2 µg/mL (≈ 1.4 µM)
Enterococcus sp.; [6]
  MIC Enterococcus faecalis (GC 4553): 2 µg/mL (≈ 1.4 µM)
Enterococcus sp.; [7]
  MIC Enterococcus faecalis (GC 4554): 2 µg/mL (≈ 1.4 µM)
Enterococcus sp.; [8]
  MIC Enterococcus faecalis (GC 6189): 2 µg/mL (≈ 1.4 µM)
Enterococcus sp.; Enterococcus faecium (GC 2243)
  MIC Enterococcus faecium (GC 2243): 1 µg/mL (≈ 0.7 µM)
Enterococcus sp.; Enterococcus faecium (GC 4556)
  MIC Enterococcus faecium (GC 4556): 2 µg/mL (≈ 1.4 µM)
Enterococcus sp.; Enterococcus faecium (GC 4557)
  MIC Enterococcus faecium (GC 4557): 2 µg/mL (≈ 1.4 µM)
Enterococcus sp.; [9]
  MIC Enterococcus avium (GC 4558): 2 µg/mL (≈ 1.4 µM)
  MIC Enterococcus faecalis (ATCC 29212): 2 µg/mL (≈ 1.4 µM)
  MIC Enterococcus faecalis (GC 2242): 2 µg/mL (≈ 1.4 µM)
  MIC Enterococcus faecalis (GC 2691): 2 µg/mL (≈ 1.4 µM)
  MIC Enterococcus faecalis (GC 3059): 2 µg/mL (≈ 1.4 µM)
  MIC Enterococcus faecalis (GC 4552): 2 µg/mL (≈ 1.4 µM)
  MIC Enterococcus faecalis (GC 4553): 2 µg/mL (≈ 1.4 µM)
  MIC Enterococcus faecalis (GC 4554): 2 µg/mL (≈ 1.4 µM)
  MIC Enterococcus faecalis (GC 6189): 2 µg/mL (≈ 1.4 µM)
  MIC Enterococcus faecium (GC 2243): 1 µg/mL (≈ 0.7 µM)
  MIC Enterococcus faecium (GC 4556): 2 µg/mL (≈ 1.4 µM)
  MIC Enterococcus faecium (GC 4557): 2 µg/mL (≈ 1.4 µM)
Streptococcus sp.; [10]
  MIC Streptococcus agalactiae (GC 4564): <0.12 µg/mL
Streptococcus sp.; [11]
  MIC Streptococcus pneumoniae (ATCC 6301): <0.12 µg/mL
Streptococcus sp.; [12]
  MIC Streptococcus pneumoniae (GC 1894): <0.12 µg/mL
Streptococcus sp.; [13]
  MIC Streptococcus pneumoniae (GC 4565): <0.12 µg/mL
Streptococcus sp.; [14]
  MIC Streptococcus pyogenes (GC 4563): <0.12 µg/mL
Streptococcus sp.; [9]
  MIC Streptococcus agalactiae (GC 4564): <0.12 µg/mL
  MIC Streptococcus pneumoniae (ATCC 6301): <0.12 µg/mL
  MIC Streptococcus pneumoniae (GC 1894): <0.12 µg/mL
  MIC Streptococcus pneumoniae (GC 4565): <0.12 µg/mL
  MIC Streptococcus pyogenes (GC 4563): <0.12 µg/mL
